The values that follow come from US8293749B2, “Injectable meclizine formulations and methods” (Genebiology, Inc., priority 2007, dated 2012).

Data set [1] concerns nausea and vomiting. The conditions noted are these: anti-emetic; cited from earlier work.
The conditions of data set [2]: Merck Index, 12th Ed, 984; cited from earlier work.
The nature of data set [3]: physchem. The conditions noted are these: 25 °C, pH 4, aqueous buffer, thermodynamic from solid, aqueous solubility of meclizine at pH 4.0. The method, then: Five HPBCD and five SBECD solutions in 0.5 M citric acid buffer (pH of 4.0) are prepared, with HPBCD and SBECD concentrations of 0; 50; 100; 150 and 200 mg/ml. 3 ml of the various buffered HPBCD and SBECD solutions are placed in 4 ml vials. 50-100 mg meclizine is added to each vial, such that excess meclizine is available. The vials are sealed and are shaken on an orbital shaker for 24 hours at 200 rpm and 25° C. Following the shaking, the vials are filtered through 0.45 μm filters to remove any excess solute. The remaining solution is assayed by HPLC for meclizine content.

Data set [4] in a line: physchem. The following applies: 25 °C, pH 3, aqueous buffer, thermodynamic from solid, aqueous solubility of meclizine at pH 3.0. The method, then:
Five HPBCD and five SBECD solutions in 0.5 M citric acid buffer (pH of 3.0) are prepared, with HPBCD and SBECD concentrations of […]. 3 ml of the various buffered HPBCD and SBECD solutions are placed in 4 ml vials. 75-100 mg meclizine is added to each vial, such that excess meclizine is provided. The vials are sealed and are shaken on an orbital shaker for 24 hours at 200 rpm and 25° C. Following the shaking, the vials are filtered through 0.45 μm filters to remove any excess solute. The remaining solution is assayed by HPLC for meclizine content.

A short description of data set [5]: Solubility of meclizine with cyclodextrins in ddH2O, HPLC. The data set is classed as physicochemical. The conditions noted are these: alpha-CD 0-100 mg/ml, gamma-CD, HPBCD and SBECD at 200 mg/ml versus no CD. The procedure:
FIG. 1A depicts solubility data of meclizine complexed with non-chemically modified cyclodextrins (α-CD at 0-100 mg/ml, γ-CD at 200 mg/ml), chemically modified cyclodextrins (HPBCD and SBECD) at 200 mg/ml, and with no CD complexation in ddH2O. Solutions were prepared by adding excess meclizine to ddH2O samples with varying quantities of the different cyclodextrins. These samples were shaken for 24 hours at 200 rpm. Following the shaking, the vial contents were filtered through 0.45 μm filters to remove any excess solute. The remaining solution was assayed by HPLC for meclizine content.

Data set [6] in a line: pH-dependent solubility of meclizine cyclodextrin complexes in 0.5 M citric buffer. The data set is classed as physicochemical. The conditions noted are these: HPBCD 200 mg/ml, above pH of about 5, compared with non-chemically modified CDs.
Data set [7] is described as follows: Aqueous solubility of meclizine versus pH, 0.1 M citric acid buffer and ddH2O, HPLC. The data set is classed as physicochemical. The conditions noted are these: for solubility at 24 h: thermodynamic from solid. The method, then: Citric acid (0.1M) buffer solutions are prepared with pH's of 1.0; 2.0; 3.0; 4.0, and 5.0 in ddH2O (de-oxygenated water by purging with nitrogen gas). 2 ml of each buffer are placed in 4 ml vials and 2 ml ddH2O is placed in a 4 ml vial. 20 mg meclizine HCl is added to each vial. The vials are sealed and are shaken on an orbital shaker for 24 hours at 200 rpm. Following the shaking, the vial contents are filtered through 0.45 μm filters to remove any excess solute. The remaining solution is assayed by HPLC for meclizine content.

≈ marks a conversion by molar mass, not a printed value.

For the molecule `CN1CCN(C(c2ccccc2)c2ccccc2)CC1` [cyclizine], the duration of action in data set [1] is 1 to 2 h.
Regarding `Cc1cccc(CN2CCN(C(c3ccccc3)c3ccc(Cl)cc3)CC2)c1.Cl.Cl` (stereo not shown) [meclizine HCl, 1-(4-chlorobenzhydryl)-4-(3-methylbenzyl)-piperazine dihydrochloride], in data set [2], the water solubility is on record as 0.1 g/100 ml.
The term solubility denotes how much of the substance goes into solution per volume. In the case of `Cc1cccc(CN2CCN(C(c3ccccc3)c3ccc(Cl)cc3)CC2)c1` (stereo not shown) [meclizine, 1-(4-chlorobenzhydryl)-4-(3-methylbenzyl)-piperazine], the solubility at 24 h in data set [3] was about 10 µg/mL (≈ 25.6 µM); in data set [4], about 300 µg/mL (≈ 767 µM); in data set [7] (aqueous buffer, 0.1 M citric acid buffer, pH 1.0, shaken 24 hours, read-out: aqueous solubility of meclizine) it was about 1500 µg/mL (≈ 3840 µM); in data set [7] (ddH2O (de-oxygenated water), pH 2, water, ddH2O, measured pH of about 2.0, shaken 24 hours, read-out: aqueous solubility of meclizine in ddH2O), about 3800 µg/mL (≈ 9720 µM). In addition, in data set [1], the duration of action result is “up to 24 hours”. In data set [5], the “solubility of meclizine with cyclodextrins” value is on record as “improved solubility”. Also, the “solubility of meclizine in HPBCD at higher pH” value in data set [6] is given as “improved solubility”. Also, the “aqueous solubility of meclizine” value in data set [7] (0.1 M citric acid buffer, about pH 5.0, shaken 24 hours) was “below the limit of detection”.
